Test results published in paper PMC9959918 (2023).

What was measured:
[1] = system: CPG-tel26 (DNA, G4) TTAGGGTTAGGGTTAGGGTTAGGGTT; experiment: G4-CPG affinity assay, UV; conditions: 50 mM KCl, 10% DMSO, 10% ethanol, 60 μM compound, error ±2%
[2] = system: CPG-ds27 (DNA, hairpin) CGCGAATTCGCGTTTCGCGAATTCGCG; experiment: G4-CPG affinity assay, UV; conditions: 50 mM KCl, 10% DMSO, 10% ethanol, 60 μM compound, error ±2%
[3] = system: CPG-c-myc (DNA, G4) TGGGGAGGGTGGGGAGGGTGGGGAAGGTGGGGA; experiment: G4-CPG affinity assay, UV; conditions: 50 mM KCl, 10% DMSO, 10% ethanol, 60 μM compound, error ±2%
[4] = system: Pu22T14T23 (Pu22) (DNA, G4) TGAGGGTGGGTAGGGTGGGTAA; experiment: CD melting, 265 nm; conditions: 5 mM KCl, 5 mM KH2PO4; 5% DMSO, pH 7; 2 μM DNA, 20 μM compound (10 equiv.); Tm ± 1
[5] = system: ds12 (Dickerson dodecamer) (DNA, duplex) CGCGAATTCGCG; experiment: fluorescence titration, 2 μM ligand, equivalent-sites fit; conditions: 5 mM KCl, 5 mM KH2PO4; 5% DMSO, pH 7, 20 °C
[6] = system: Pu22T14T23 (Pu22) (DNA, G4) TGAGGGTGGGTAGGGTGGGTAA; experiment: as above; conditions: 5 mM KCl, 5 mM KH2PO4; 5% DMSO, pH 7, 20 °C
[7] = system: ds12 (Dickerson dodecamer) (DNA, duplex) CGCGAATTCGCG; experiment: CD melting, 253 nm; conditions: 5 mM KCl, 5 mM KH2PO4; 5% DMSO, pH 7; 2 μM DNA, 20 μM compound (10 equiv.); Tm ± 1
[8] = system: tel26 (DNA, G4) TTAGGGTTAGGGTTAGGGTTAGGGTT; experiment: CD melting, 290 nm; conditions: 5 mM KCl, 5 mM KH2PO4; 5% DMSO, pH 7; 2 μM DNA, 20 μM compound (10 equiv.); Tm ± 1
[9] = system: tel26 (DNA, G4) TTAGGGTTAGGGTTAGGGTTAGGGTT; experiment: fluorescence titration, 2 μM ligand, equivalent-sites fit; conditions: 5 mM KCl, 5 mM KH2PO4; 5% DMSO, pH 7, 20 °C

COc1cc2c(cc1OC)[C@@H]1C(=O)c3ccc4c(c3O[C@@H]1CO2)C=CC(C)(C)O4
Bound Ligand ([1]; nude CPG 0%): 0%
Bound Ligand ([2]; nude CPG 0%): 0%
Bound Ligand ([3]; nude CPG 0%): 0%

COc1cc2c(cc1OC)-c1c(OC)c(OC)cc3c1[C@H](C2)N(C)CC3
Bound Ligand ([1]; nude CPG 0%): 2%
Bound Ligand ([2]; nude CPG 0%): 0%
Bound Ligand ([3]; nude CPG 0%): 1%

COc1cc2c(cc1OC)-c1c3c(cc4c1[C@H](C2)N(C)CC4)OCO3
ΔTm [4]: +5 °C
Kb [5]: (3.2 ± 0.4) × 10^5 M^−1
Kb [6]: (0.8 ± 0.5) × 10^6 M^−1
ΔTm [7]: +1 °C
ΔTm [8]: +3 °C
Bound Ligand ([1]; nude CPG 0%): 67%
Kb [9]: (2.8 ± 1.2) × 10^6 M^−1
Bound Ligand ([2]; nude CPG 0%): 30%
Bound Ligand ([3]; nude CPG 0%): 47%

COc1ccc2c(c1OC)CN1CCc3cc4c(cc3[C@@H]1C2)OCO4
Bound Ligand ([2]; nude CPG 21%): 4%

CC1(C)C=Cc2c(ccc3c2O[C@@H]2COc4cc5c(cc4[C@@H]2C3=O)OCO5)O1
Bound Ligand ([1]; nude CPG 8%): 8%
Bound Ligand ([2]; nude CPG 8%): 8%
Bound Ligand ([3]; nude CPG 8%): 8%
